# Reference: patent US11737462B2, “Methods for modulating plant response to environmentally-induced stress” (Howard University, priority 2012, dated 2023)
# Assays:
# [1] = test system: Arabidopsis leaves; assay: H2O2 accumulation in Arabidopsis leaves (DAB staining); assay type: in vivo, Arabidopsis thaliana; conditions: 5 μM H2O2 and DAB overnight, vs DMSO only
# Procedure: Arabidopsis leaves were treated with 5 μM H2O2 and 3,3′-diaminobenzidene (DAB) with and without SD-29 overnight. A control included DMSO only (included in the same volume as SD-29). The brown spots indicate sites of accumulation of H2O2.
# [2] = test system: rice leaves; assay: uptake of salts from the incubation medium by rice leaves; assay type: in vivo; conditions: 60 μM compound, 250 mM NaCl, vs non-treated leaves
# Procedure: The effect of SD-29 on modulating salt-induced stress was evaluated with rice detached leaves at room temperature (about 24° C.) for seven days in a water incubation medium. All plants received sufficient incubation medium to last the seven days. Plant A (left most) received 250 mM NaCl plus DMSO, Plant B (right of Plant A) received 60 μM SD-29 and 250 mM NaCl, and plant D received 60 μM SD-29 in the incubation medium. The incubation medium of Plant C was untreated. To examine whether the salt stress resistance comes from the differential uptake of sodium ions due to the drug treatment, the uptake of salts from the incubation medium was assayed (leaves from FIG. 5). […] The base point is indicated with 250 mM of salt line.
# [3] = test system: pepper plants; assay: salt-induced stress in pepper plants; assay type: in vivo; conditions: 60 μM compound plus 250 mM NaCl, 48 hours, about 24° C.
# Procedure: In the examples described herein, the test compounds (e.g., SD-29 or analogs thereof) were dissolved in dimethyl sulfoxide (DMSO) to provide a 20 mM concentration. Micromolar concentrations were then prepared as needed by addition to the water incubation media. Unless stated otherwise, the experimental plants were incubated with the roots immersed in the water containing the compound. The control plants received only DMSO in the same amount as that of the compound.
# Salt-induced stress was evaluated with pepper plants at room temperature (about 24° C.) for 48 hours. All plants received sufficient incubation media to last the seven days. Plant A received 60 μM SD-29 plus 250 mM NaCl and plant B received 250 mM NaCl in the incubation medium with DMSO.
# [4] = test system: MnSOD; assay: native gel assay of Mn-SOD activity in rice during salt stress; assay type: in vivo; conditions: salt stress conditions, NaCN in gel activity buffer
# [5] = test system: Cu/Zn SOD; assay: native gel analysis of superoxide dismutase activity in pepper leaf lysate; assay type: in vivo; conditions: 60 μM compound plus 250 mM NaCl, vs DMSO treated plants
# Procedure: Native gel analysis was performed on a lysate prepared from the pepper plant leaves in FIG. 8. The gel is stained for detecting enzymatic activity of different isoforms of superoxide dismutase—key enzymes that detoxify the reactive oxygen species which usually develop during the stress conditions. […] Therefore, it appears that SD-29 may help detoxify the cellular reactive oxygen species generated during the salt stress conditions.
# [6] = test system: salt glands (trichome) on Arabidopsis leaves; assay: sodium green dye staining of Arabidopsis leaves (sodium uptake); assay type: in vivo, Arabidopsis thaliana; conditions: 1 week old plants, 100 mM salt, 60 μM compound, three hours
# Procedure: 1 week old Arabidopsis plants were treated with and without 100 mM salt, as well as with and without the presence of 60 μM SD-29, in incubation medium for three hours. The leaves were stained with sodium green dye (5 μM) according to the manufacturer's protocol (Invitrogen, Calif.) and analyzed by fluorescent microscopy to determine if the plants take up sodium from the incubation medium. The dye fluoresces in the presence of sodium ion.
# [7] = test system: Arabidopsis protoplasts; assay: H2O2-induced reactive oxygen species in Arabidopsis protoplasts (H2DCF staining); assay type: cell-based, Arabidopsis thaliana; conditions: H2O2 for 2 hours, 60 μM compound, H2DCF dye
# Procedure: In this example, to examine whether SD-29 can prevent generation of reactive oxygen species (ROS) under stress, the effect of SD-29 on H2O2 treated Arabidopsis protoplasts was evaluated. Protoplasts were treated with H2O2 for 2 hours with and without 60 μM SD-29. An untreated control was also evaluated. The protoplasts were stained with reactive oxygen species visualization dye H2DCF that fluoresces in the presence of ROS and the treated protoplasts were evaluated using fluorescent microscopy.
# [8] = test system: Arabidopsis plants; assay: drought-induced stress (sorbitol) in Arabidopsis plants; assay type: in vivo, Arabidopsis thaliana; conditions: 150 mM sorbitol plus 60 μM compound, about three weeks, room temperature
# Procedure: In the examples described herein, the test compounds (e.g., SD-29 or analogs thereof) were dissolved in dimethyl sulfoxide (DMSO) to provide a 20 mM concentration. Micromolar concentrations were then prepared as needed by addition to the water incubation media. Unless stated otherwise, the experimental plants were incubated with the roots immersed in the water containing the compound. The control plants received only DMSO in the same amount as that of the compound. The effect of SD-29 on modulating drought-induced stress was evaluated with Arabidopsis plants for about three weeks at room temperature. Sorbitol was used to imitate drought conditions. All plants received sufficient incubation media to last the seven days. Plant A was treated with DMSO (in a volume equal to the volume of SD-29 used for Plants B and C), plant B was treated with 150 mM sorbitol plus 60 μM SD-29, plant C was treated with 60 μM SD-29, and plant D was treated with 150 mM sorbitol in the incubation medium.
# [9] = test system: bean plants; assay: salt-induced stress in bean plants; assay type: in vivo; conditions: 60 μM compound plus 250 mM NaCl, 96 hours, about 24° C.
# Procedure: In the examples described herein, the test compounds (e.g., SD-29 or analogs thereof) were dissolved in dimethyl sulfoxide (DMSO) to provide a 20 mM concentration. Micromolar concentrations were then prepared as needed by addition to the water incubation media. Unless stated otherwise, the experimental plants were incubated with the roots immersed in the water containing the compound. The control plants received only DMSO in the same amount as that of the compound. Salt-induced stress was evaluated with bean plants at room temperature (about 24° C.) for 96 hours. All plants received sufficient incubation media to last the seven days. Plant A received 60 μM SD-29 plus 250 mM NaCl and plant B received 250 mM NaCl in the incubation medium.
# [10] = test system: tomato plants; assay: salt-induced stress in tomato plants; assay type: in vivo; conditions: 60 μM compound plus 250 mM NaCl, five days, about 24° C.
# Procedure: In the examples described herein, the test compounds (e.g., SD-29 or analogs thereof) were dissolved in dimethyl sulfoxide (DMSO) to provide a 20 mM concentration. Micromolar concentrations were then prepared as needed by addition to the water incubation media. Unless stated otherwise, the experimental plants were incubated with the roots immersed in the water containing the compound. The control plants received only DMSO in the same amount as that of the compound. Salt-induced stress was evaluated with tomato plants at room temperature (about 24° C.) for five days. The plants received sufficient incubation media to last through the five day experiment. Plant A received 60 μM SD-29 plus 250 mM NaCl and plant B received 250 mM NaCl (plus DMSO in the same volume as the volume of SD-29 received by plant A) in the incubation medium.
compound,measurement,setting,value
Nn1c(S)nnc1-c1ccc(F)cc1 [SD-29],H2O2 accumulation in leaves,[1],prevents H2O2 accumulation in the leaves
same,sodium ions remaining in the incubation medium,[2],more sodium ions remained in the incubation medium
same,pepper plant condition in high salt,[3],thrived in the high salt conditions (with no chlorosis)
same,MnSOD activity in rice,[4],upregulates MnSOD activity
same,cytoplasmic and chloroplastic Cu/Zn SOD enzyme activities in pepper leaves,[5],caused upregulation of both the cytoplasmic (lower band) and chloroplastic (upper band) Cu/Zn SOD enzyme activities
same,salt uptake through the salt glands (sodium green fluorescence),[6],prevents salt uptake through the salt glands (trichome)
same,accumulation of H2O2-induced reactive oxygen species in protoplasts,[7],prevented accumulation of H2O2-induced reactive oxygen species
same,plant performance under drought-imitating sorbitol,[8],performed much better than the plant treated with sorbitol alone
same,bean plant condition in high salt,[9],thrived (did not wilt) in the high salt conditions
same,tomato plant condition in high salt,[10],thrived (did not wilt) in the high salt conditions
